Results reported in US20240398773A1, “COMPOSITIONS COMPRISING OTESECONAZOLE” (Mycovia Pharmaceuticals, Inc., priority 2021, published 2024).
Where two headings read alike, the source gives them in different places.

How the values were obtained:
[1] = Physicochemical and biological properties of drug substance
From the text: As a BCS Class IIc drug, it may be anticipated that dissolution may be dependent upon the drug substance particle size. (Tsume et al., 2014). Micronization of the drug substance provided a means to deliver drug substance with a small and consistent particle size. A discriminatory dissolution method was developed to show the effect of drug substance particle size on dissolution to help ensure product quality. […] A high shear wet granulation process was developed to densify the product, and improve its flow to enable manufacturing, while maintaining good dissolution from the formulation.

[2] = Study CL-005 in subjects with onychomycosis, plasma PK; type: in vivo; conditions: human; for AUC(0-t): read-out: AUC0-8; for concentration at 12 weeks: after 12 weeks; for concentration at 12 weeks / concentration at 24 weeks: read-out: plasma exposure; for concentration at 24 weeks: after 24 weeks
Experimental: Within each treatment group, oteseconazole plasma exposures increased throughout the dosing regimen from Day 1 to Week 12 or 24. […] Mean Cmax and AUC0-8 values after the Day 14 dose (completion of the loading dose phase of the study) were similar for the 300 mg 12-week and 300 mg 24-week treatment groups, and for the 600 mg 12-week and 600 mg 24-week treatment groups, as expected.

[3] = Study CL-006 plasma PK; type: in vivo, human; conditions: for AUC(0-t): read-out: AUC0-8
From the text: Oteseconazole plasma concentrations continued to increase after the 7-day loading dose portion of the Maintenance Period until the end of dosing in an approximately dose-proportional manner FIG. 3.
Mean plasma PK parameters on Day 7 of the Maintenance Period are presented by treatment group in Table 12.

[4] = system: recurrent VVC episode; assay: Study CL-006 culture-verified recurrent VVC episodes; type: in vivo, human; conditions: 150 mg, 3 months dose group (150 mg QD 7 days, then 150 mg QW 11 weeks)
From the text: The dosing regimen yielded oteseconazole plasma concentrations that provided marked efficacy across all dose groups, with no differences in the extent of efficacy noted.

[5] = Study CL-007 DDI and PKE cohorts, plasma PK; type: in vivo; design: AUC(0-t) / AUC(0-inf): concentration or dose not given beside the values; conditions: human; for AUC(0-t): read-out: AUC0-24
Experimental: The median Tmax was 4.0 hours on Day 3 and 6.0 hours on Day 16. […] The increase in oteseconazole concentrations after 14 days of daily dosing was expected based on the long half-life of oteseconazole and are a consequence of accumulation and not of concomitant administration of midazolam.
The geometric mean AUC0-24 was 26120 h*ng/ml and the geometric mean AUC0-∞ was 57290 h*ng/mL. These values were consistent with the oteseconazole plasma PK parameters calculated on Day 3 in the DDI cohort.

[6] = Study CL-012 plasma concentrations; type: in vivo; conditions: human
Experimental: Oteseconazole mean (SD) plasma concentration increased with dosing for 12 weeks, reaching a maximum concentration of 3605.8 (1518.08) μg/L at Week 12. At the end of dosing, there was a slow decrease in oteseconazole plasma concentration, reaching 1122.0 (656.14) μg/L by Week 48 (FIG. 5). Following the loading dose regimen of 150 mg oteseconazole QD for 7 days, the mean (SD) oteseconazole plasma concentration at Day 14 was 1785.5 (747.75) μg/L.

[7] = system: acute VVC episodes; assay: Study CL-017 efficacy versus fluconazole, acute VVC episodes; type: in vivo, human
[8] = 300 mg, Day 14, Low Dose (300 mg), 12 weeks
[9] = 300 mg, Day 14, Low Dose (300 mg), 24 weeks
[10] = 600 mg, Day 14, High Dose (600 mg), 12 weeks
[11] = 600 mg, Day 14, High Dose (600 mg), 24 weeks
[12] = human, plasma, 150 mg, Day 7, 150 mg, 12 weeks
[13] = human, plasma, 150 mg, Day 7, 150 mg, 24 weeks
[14] = human, plasma, 300 mg, Day 7, 300 mg, 12 weeks
[15] = human, plasma, 300 mg, Day 7, 300 mg, 24 weeks
[16] = DDI Cohort, Day 3, geometric mean
[17] = DDI Cohort, Day 16, geometric mean
[18] = PKE Cohort, Day 1, geometric mean

With `O[C@@](Cn1cnnn1)(c1ccc(F)cc1F)C(F)(F)c1ccc(-c2ccc(OCC(F)(F)F)cc2)cn1` [Oteseconazole, oteseconazole] the BCS class [1] was “BCS Class IIc”, the hygroscopicity [1] was “slightly hygroscopic” and the stability to light [1] was “stable in the presence of light”. For the same compound, the solubility ([1]; BCS classification) was “low solubility”, the chemical stability ([1]; alone and formulated into a drug product) was “excellent chemical stability” and the bulk density ([1]; micronized drug substance) was “approximately 0.2 g/mL”. The ionization ([1]; pH range of the gastrointestinal tract) was “unionized throughout the pH range of the gastrointestinal tract”, the Cmax [2, 8] was 5120 ng/mL and the AUC(0-t) [2, 8] was 36.7 µg·h/mL. The Cmax [2, 9] was 5510 ng/mL, the AUC(0-t) [2, 9] was 40.1 µg·h/mL and the Cmax [2, 10] was 8290 ng/mL. The AUC(0-t) [2, 10] was 59.7 µg·h/mL, the Cmax [2, 11] was 8390 ng/mL and the AUC(0-t) [2, 11] was 61.6 µg·h/mL. The Tmax ([2]; Day 14, High Dose (600 mg), 12 weeks) was 5 h, the Tmax ([2]; Day 14, Low Dose (300 mg), 12 weeks) was 5 h and the concentration at 12 weeks ([2]; 300 mg 12-week treatment group) was 6750 ng/mL. The concentration at 12 weeks ([2]; 600 mg 12-week treatment group) was 12300 ng/mL, the concentration at 24 weeks ([2]; 300 mg 24-week treatment group) was 9230 ng/mL and the concentration at 24 weeks ([2]; 600 mg 24-week treatment group) was 15600 ng/mL. For the same compound, the Tmax ([3]; Day 7, 150 mg, 24 weeks) was 4.93 h, the Tmax ([3]; Day 7, 300 mg, 12 weeks) was 4.92 h and the Cmax [3, 12] was 1340 ng/mL. It also gave an AUC(0-t) [3, 12] of 9.12 µg·h/mL, a Cmax [3, 13] of 1800 ng/mL and an AUC(0-t) [3, 13] of 12.3 µg·h/mL. It also gave a Cmax [3, 14] of 2750 ng/mL, an AUC(0-t) [3, 14] of 20.5 µg·h/mL and a Cmax [3, 15] of 3120 ng/mL. The AUC(0-t) [3, 15] was 21.6 µg·h/mL, the concentration at 48 week ([3]; human, plasma, 150 mg oteseconazole) was 2150 ng/mL and the concentration at 48 week ([3]; human, plasma, 300 mg oteseconazole) was 5090 ng/mL. The Tmax ([3]; human, plasma, Day 7, 150 mg, 12 weeks, read-out: Tmax) was 4 h, the half-life ([3]; human, plasma, calculated using a population PK approach) was about 171 days and the “subjects with a culture-verified recurrent VVC episode by Week 48” value [4] was 4.8%. The AUC(0-inf) [5, 16] was 49.4 µg·h/mL, the Cmax [5, 16] was 1910 ng/mL and the AUC(0-t) [5, 16] was 24.6 µg·h/mL. It also gave a Tmax ([5]; DDI Cohort, Day 3, median) of 4 h, an AUC(0-inf) [5, 17] of 4880 µg·h/mL and a Cmax [5, 17] of 11600 ng/mL. The AUC(0-t) [5, 17] was 243 µg·h/mL, the Tmax ([5]; DDI Cohort, Day 16, median) was 6 h and the AUC(0-inf) [5, 18] was 57.3 µg·h/mL. It also gave a Cmax [5, 18] of 1900 ng/mL, an AUC(0-t) [5, 18] of 26.1 µg·h/mL and a Tmax ([5]; PKE Cohort, Day 1, median) of 6 h. It also gave a concentration at 12 week ([6]; 150 mg, Week 12, maximum concentration, read-out: mean (SD) plasma concentration) of 3610 ng/mL, a concentration at 48 week ([6]; 150 mg, Week 48, read-out: mean (SD) plasma concentration) of 1120 ng/mL and a concentration at 14 day ([6]; Day 14, after loading 150 mg QD for 7 days, read-out: mean (SD) plasma concentration) of 1790 ng/mL. For the same compound, the “efficacy of enhanced loading dose compared with fluconazole” value ([7]; 600 mg Day 1 and 450 mg Day 2 versus fluconazole three 150 mg doses 72 hours apart) was “noninferior to fluconazole” and the “average percentage of subjects with 1 or more culture-verified acute VVC episodes” value ([7]; including subjects who had a recurrence during the Induction Phase) was 5.1%.
